Tested on: SKCO1 cells
Assay: SKCO1 xenograft tumor model in NSG mice
Type: in vivo
Source text: (A) Proliferation of Caco2 cells assessed by crystal violet staining at the indicated days; bar=1000 μm. […] Staining quantification is reported in the bar graph as percentage of crystal violet stained area. Data represent mean±SEM, n=4. For statistical analyses, a two-way analysis of variance was used, followed by the Bonferroni correction for multiple group comparisons; *=p<0.05, ***=p<0.001. (B) Caco2 cells viability the day of plating (day 0) and three days after plaiting (day 3). The measure is considered a readout of cell proliferation. […] Data represent mean±SEM, n=3 wells. For statistical analyses, a two-way analysis of variance was used, followed by the Bonferroni correction for multiple group comparisons; *=p<0.05, **=p<0.01. (C, D, E) Representative flow cytometric analyses of apoptosis in synchronized Caco2 (C), SKCO1 (D) and C80 (E) cells. […] Data represent mean±SEM, n=4 wells pooled from two independent experiments. […]
For the SKCO1 xenograft model, 8-week-old NOD SCID gamma (NSG) male mice (The Jackson Laboratory, Bar Harbor, ME USA; NOD.Cg-Prkdc^scid Il2rg^tm1Wjl/SzJ, catalog n° 005557, RRID: IMSR_JAX:005557) were housed in a temperature-controlled, pathogen-free environment and used for experimentation. […] Tumor length (L) and width (W) were measured and tumor volume (mm^3) was calculated using the following formula: (L×W^2)/2. […]

For “FLVCR1a shRNA: shRNA specifically down-regulating FLVCR1a without targeting FLVCR1b; pLKO.1 lentiviral clone TRCN0000059599, antisense SEQ ID No.: 2 (antisense TTGCTAATGATGCTGTACTGG; sense CCAGTACAGCATCATTAGCAA)”, the “tumor size (tumor volume)” value (subcutaneous injection of FLVCR1a-silenced vs scramble SKCO1 cells in NSG mice, 11 weeks) was “smaller tumors” and the “tumor histology (hematoxylin and eosin)” value (tumors from FLVCR1a-silenced vs control SKCO1 cells in NSG mice) was “higher amount of stroma (mostly fibrous tissue) and, in general, lower cellularity”.

— patent US20240285670A1, “THERAPEUTIC TREATMENT OF TUMORS BY BLOCKING THE HEME SYNTHESIS-EXPORT AXIS” (Università degli Studi di Torino, priority 2021, published 2024)
